# Data reported in the supplement of paper PMC10307832.
# Columns and labels:
# Assay in all cases: relative viability (nuclei count vs DMSO), 5 days (fraction); higher = more cells survive
# [1] = compound: Cn1cc(-c2cnn3c(N)c(Br)c([C@@H]4CCCNC4)nc23)cn1 + COc1cccc2cc(-c3nc([C@H]4CC[C@H](C(=O)O)CC4)n4ncnc(N)c34)[nH]c12 [OSI-027] (partner 0.5 µM)
# Procedure, shortened: (§1)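 Relative viability equals treated-well nuclei counts divided by vehicle-well nuclei counts. Counts came from 4× images of lung cancer cell lines grown in 1536-well plates for 5 days after pin-tool dosing on the day after seeding. Dosing used one drug alone or a fixed anchor-drug dose plus five library-drug doses (not always all listed) in √10 steps, and values are medians of duplicate plates.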
# [2] = compound: Cn1cc(-c2cnn3c(N)c(Br)c([C@@H]4CCCNC4)nc23)cn1 + Cc1nc(NC(=O)N2CCC[C@H]2C(N)=O)sc1-c1ccnc(C(C)(C)C(F)(F)F)c1 [Alpelisib] (partner 2 µM)
# Procedure, shortened: as §1
# [3] = compound: Cn1cc(-c2cnn3c(N)c(Br)c([C@@H]4CCCNC4)nc23)cn1 + C[C@]1(O)C[C@@H](c2nc(-c3ccc4ccc(-c5ccccc5)nc4c3)c3c(N)nccn32)C1 [Linsitinib] (partner 1 µM)
# Procedure, shortened: as §1
# [4] = compound: Cn1cc(-c2cnn3c(N)c(Br)c([C@@H]4CCCNC4)nc23)cn1 + CS(=O)(=O)CCNCc1ccc(-c2ccc3ncnc(Nc4ccc(OCc5cccc(F)c5)c(Cl)c4)c3c2)o1 [Lapatinib] (partner 2 µM)
# Procedure, shortened: as §1
Cell Line,relative viability ([1]; first compound 0.05 µM),relative viability ([1]; first compound 0.1581 µM),relative viability ([1]; first compound 0.5 µM),relative viability ([1]; first compound 1.581 µM),relative viability ([1]; first compound 5 µM),relative viability ([2]; first compound 0.05 µM),relative viability ([2]; first compound 0.1581 µM),relative viability ([2]; first compound 0.5 µM),relative viability ([2]; first compound 1.581 µM),relative viability ([2]; first compound 5 µM),relative viability ([3]; first compound 0.05 µM),relative viability ([3]; first compound 0.1581 µM),relative viability ([3]; first compound 0.5 µM),relative viability ([3]; first compound 1.581 µM),relative viability ([3]; first compound 5 µM),relative viability ([4]; first compound 0.05 µM),relative viability ([4]; first compound 0.1581 µM),relative viability ([4]; first compound 0.5 µM),relative viability ([4]; first compound 1.581 µM),relative viability ([4]; first compound 5 µM)
NCI-H23,0.589,0.549,0.506,0.491,0.268,0.741,0.717,0.613,0.667,0.227,0.575,0.642,0.466,0.449,0.244,1.08,1.23,1.02,0.825,0.267
NCI-H322M,0.46,0.356,0.466,0.354,0.242,0.765,0.799,0.863,0.756,0.678,0.86,0.943,0.889,0.864,0.828,0.488,0.585,0.621,0.493,0.512
NCI-H358,0.808,0.787,0.56,0.616,0.743,0.957,0.766,0.852,0.518,0.78,0.7,0.626,0.608,0.581,0.523,0.465,0.477,0.446,0.46,0.378
NCI-H460,0.725,0.765,0.515,0.203,0.0935,0.59,0.459,0.509,0.155,0.0851,0.611,0.68,0.728,0.217,0.183,1.12,1.37,1.15,0.288,0.591
NCI-H520,0.214,0.215,0.269,0.265,0.288,0.86,0.887,0.763,0.64,0.785,0.991,0.939,0.931,0.733,0.561,0.819,0.685,0.649,0.705,0.707
NCI-H596,0.833,0.87,0.643,0.654,0.719,0.939,0.498,0.47,0.494,0.478,1.07,1.11,1.01,0.986,1.16,1.15,1.09,1.06,0.972,1
NCI-H647,0.66,0.718,0.612,0.588,0.479,1.16,1,1.05,0.331,0.444,1.12,1.24,0.85,0.796,0.42,1.43,1.22,1.17,0.497,0.275
NCI-H650,0.571,0.503,0.54,0.476,0.485,1.16,1.22,1.23,1.05,0.858,0.808,0.775,0.846,0.795,0.657,0.802,0.831,1.03,0.652,0.503
NCI-H661,0.711,0.789,0.718,0.513,0.511,0.596,0.611,0.521,0.667,0.297,0.557,0.592,0.579,0.479,0.314,0.441,0.503,0.518,0.48,0.324
NCI-H727,0.551,0.761,0.719,0.711,0.429,0.575,0.535,0.534,0.412,0.361,0.189,0.261,0.235,0.289,0.236,0.867,1.05,0.813,0.88,0.426
NCI-H838,0.386,0.416,0.371,0.367,0.338,1.08,1.16,0.94,0.784,1.02,0.984,1.09,0.987,0.824,0.962,0.955,1.15,0.964,0.667,0.775
NCI-H1355,0.442,0.469,0.416,0.372,0.328,0.797,0.875,0.819,0.849,0.825,0.798,0.911,0.738,0.82,0.814,1,1.08,0.92,0.969,0.859
NCI-H1395,0.606,0.574,0.631,0.487,0.338,1.18,0.685,0.874,0.66,0.435,1.19,0.679,1.11,0.616,0.431,1.01,0.634,0.756,0.833,0.397
NCI-H1437,0.826,1.11,0.954,0.803,0.733,1.05,1.02,0.795,0.576,0.761,1.17,1.16,0.954,0.604,0.821,0.802,0.975,0.741,0.563,0.505
NCI-H1563,0.737,0.779,0.691,0.711,0.703,0.827,0.835,0.935,0.8,0.762,1.13,1.27,1.26,1.17,0.848,0.941,0.861,0.888,0.859,0.888
NCI-H1651,0.653,0.787,0.618,0.453,0.242,1.08,1,1.01,0.479,0.434,0.949,0.977,0.869,0.574,0.356,0.733,0.874,0.708,0.494,0.367

Cell Line,relative viability ([1]; first compound 0.05 µM),relative viability ([1]; first compound 0.1581 µM),relative viability ([1]; first compound 0.5 µM),relative viability ([1]; first compound 1.581 µM),relative viability ([1]; first compound 5 µM),relative viability ([2]; first compound 0.05 µM),relative viability ([2]; first compound 0.1581 µM),relative viability ([2]; first compound 0.5 µM),relative viability ([2]; first compound 1.581 µM),relative viability ([2]; first compound 5 µM),relative viability ([3]; first compound 0.05 µM),relative viability ([3]; first compound 0.1581 µM),relative viability ([3]; first compound 0.5 µM),relative viability ([3]; first compound 1.581 µM),relative viability ([3]; first compound 5 µM),relative viability ([4]; first compound 0.05 µM),relative viability ([4]; first compound 0.1581 µM),relative viability ([4]; first compound 0.5 µM),relative viability ([4]; first compound 1.581 µM),relative viability ([4]; first compound 5 µM)
NCI-H1666,0.827,0.966,0.913,0.812,0.66,1.02,1.01,0.853,0.807,0.785,0.896,0.745,0.653,0.714,0.711,0.576,0.648,0.555,0.559,0.594
NCI-H1734,0.59,0.581,0.563,0.54,0.362,0.708,0.695,0.626,0.596,0.58,0.942,0.932,0.901,0.778,0.744,1.06,1.08,0.917,0.944,0.778
NCI-H1755,0.74,0.803,0.715,0.693,0.587,1.03,1.05,0.817,0.873,0.879,1.07,1.04,0.978,0.924,0.972,1.15,1.14,1.09,0.743,0.758
NCI-H1792,–,0.91,0.677,0.574,0.719,0.883,0.887,0.411,0.408,0.488,0.709,0.531,0.347,0.327,0.274,0.84,1.06,0.335,0.718,0.784
NCI-H1793,0.286,0.282,0.324,0.309,0.304,0.773,0.878,0.709,0.666,0.58,0.983,1.18,0.87,0.83,0.513,0.709,0.926,0.689,0.753,0.259
NCI-H1915,0.646,0.631,0.566,0.543,0.561,1.01,1.08,1.03,1.08,1.1,1.1,1.07,1.05,1.16,1.14,1,0.959,0.989,0.825,0.954
NCI-H1944,0.427,0.454,0.39,0.349,0.278,0.808,0.797,0.825,0.717,0.626,1.16,1.2,1.12,1.06,0.867,0.823,0.832,0.761,0.605,0.577
NCI-H1975,0.895,0.72,0.706,0.554,0.654,0.685,0.681,0.655,0.404,0.525,1.08,0.918,0.842,0.79,0.805,0.888,0.862,0.835,0.635,0.798
NCI-H1993,0.603,0.551,0.389,0.55,0.54,0.632,0.7,–,0.66,0.708,0.718,0.69,–,0.672,0.739,0.634,0.858,–,0.739,0.759
NCI-H2009,0.681,0.709,0.534,0.515,0.422,1.17,1.25,1.09,1.09,0.849,1.14,1.31,1.22,1.12,1.09,0.975,1.06,0.865,0.798,0.794
NCI-H2023,0.438,0.342,0.269,0.159,0.13,0.494,0.497,0.48,0.3,0.193,0.582,0.452,0.421,0.244,0.135,0.978,0.739,0.416,0.258,0.127
NCI-H2085,0.809,0.954,0.78,0.652,0.431,1.01,1.04,0.955,0.868,0.769,0.85,0.885,0.859,0.824,0.779,0.801,0.847,0.893,0.738,0.621
NCI-H2087,0.498,0.696,0.641,0.454,0.503,1.29,1.17,1.21,0.98,0.938,1.1,1.07,0.998,1.04,0.857,1.29,1.17,0.996,1.21,0.985
NCI-H2126,0.715,0.744,0.74,0.673,0.672,0.824,0.788,0.768,0.729,0.757,0.842,0.723,0.714,0.666,0.686,0.743,0.847,0.753,0.642,0.817
NCI-H2228,0.689,0.674,0.592,0.458,0.315,0.794,1.15,0.87,0.541,0.372,0.975,0.895,0.628,0.586,0.459,1.54,1.14,1.2,0.493,0.378
NCI-H2347,0.418,0.594,0.291,0.377,0.326,0.974,1.19,0.959,0.957,0.812,0.992,1.01,0.986,0.917,0.85,0.919,1.03,1.05,0.902,0.645
